The values that follow come from patent US12319655B2, “RAF kinase inhibitors and methods of use thereof” (Deciphera Pharmaceuticals, LLC, priority 2021, dated 2025).

One test deals with H2405 cells. Kind of test: H2405 Cell Proliferation Assay (2). The conditions noted are these: Homo sapiens, NCI-H2405. Format: cell-based. On the procedure: H2405 Cell Proliferation Assay (2)
(§1) H2405 cells (catalog #CRL-5994) are obtained from the American Type Culture Collect (ATTC, Manassas, VA). Briefly, cells were grown in RPMI 1640 supplemented with 5% characterized fetal bovine serum (Invitrogen, Carlsbad, CA) and 1% Penicillin/Streptomycin/L-Glutamine at 37° C., 5% CO2, and 95% humidity. Cells are expanded until reaching 70-95% confluency at which point they are sub-cultured or harvested for assay use. A serial dilution of test compound is dispensed into a 384-well black clear bottom plate in triplicate. Seven hundred fifty cells are added per well in 50 μL complete growth medium in the 384-well plate. Plates are incubated for 67-72 h at 37° C., 5% CO2, and 95% humidity. At the end of the incubation, 10 μL of a 440 μM solution of resazurin (Sigma, St. Louis, MO) in PBS is added to each well of the plate and plates are incubated for an additional 5-6 h at 37° C., 5% CO2, and 95% humidity. Plates are read on a Synergy2 or equivalent reader (Biotek, Winooski VT) using an excitation of 540 nm and an emission of 600 nm. Data is analyzed using Prism software (GraphPad, San Diego, CA) to calculate IC50 values

In the next test the test system is Miapaca-2 cells. Kind of test: MiaPaca-2 Cell Proliferation Assay (2). Format: cell-based. The conditions noted are these: Homo sapiens, MIA PaCa-2, single agent. On the procedure: MiaPaca-2 Cell Proliferation Assay (2)
as §1, with “Miapaca-2 cells” for “H2405 cells”, “(catalog #CRL-1420)” for “(catalog #CRL-5994)”, “in DMEM” for “in RPMI 1640”, “with 10%” for “with 5%”, “Carlsbad, CA), 2.5% New Zealand sourced horse serum” for “Carlsbad, CA)”, “IC50 values.” for “IC50 values”

With `CNC(=O)c1cc(-c2cncc(-c3cc(NC(=O)c4ccnc(C(C)C)c4)ccc3C)c2)ccn1` [Example 445], the IC50 with H2405 cells is at most 0.1 µM; in the test with Miapaca-2 cells it was 1 to 10 µM. For `CNC(=O)c1cc(-c2cncc(-c3cc(NC(=O)c4ccnc(C(C)(C)C#N)c4)ccc3C)c2)ccn1` [Example 442] the same measures were at most 0.1 µM and 0.5 to 1 µM. The matching figures for `CNC(=O)c1cc(-c2cc(-c3cc(NC(=O)c4ccnc(C(C)(C)F)c4)ccc3C)cc(C)n2)ccn1` [Example 470]: at most 0.1 µM and 1 to 10 µM. For `CNC(=O)c1cc(-c2cc(-c3cc(NC(=O)c4ccnc(C(C)(F)F)c4)ccc3C)ccn2)ccn1` [Example 441] the same measures were at most 0.1 µM and 1 to 10 µM. `CNC(=O)c1cc(-c2cc(-c3cc(NC(=O)c4ccnc(C(C)(C)F)c4)ccc3C)c(F)cn2)ccn1` [Example 469]: the half-maximal inhibitory concentration (IC50) in the test with H2405 cells was in the range of 0.1 to 0.5 µM; in the test on Miapaca-2 cells, 1 to 10 µM. With `CNC(=O)c1cc(-c2cncc(-c3cc(NC(=O)c4ccnc(C(C)C)c4)ccc3C)c2)ncn1` [Example 446], the IC50 was 0.1 to 0.5 µM in the test on H2405 cells and 1 to 10 µM with Miapaca-2 cells. For `CNC(=O)c1cc(-c2cc(-c3cc(NC(=O)c4ccnc(C(C)(C)F)c4)c(F)cc3F)ccn2)ccn1` [Example 482] the same measures were 0.1 to 0.5 µM and 1 to 10 µM. As for `Cc1ccc(NC(=O)c2ccnc(C(C)(C)F)c2)cc1-c1ccnc(-c2ccnc(C(N)=O)c2)c1` [Example 476], the results for the IC50 with H2405 cells and in the test on Miapaca-2 cells were at most 0.1 µM and 1 to 10 µM, respectively. For `CNC(=O)c1cc(-c2cncc(-c3cc(NC(=O)c4ccnc(C(C)(F)F)c4)ccc3C)c2)ncn1` [Example 439] the same measures were 0.1 to 0.5 µM and 1 to 10 µM. For `Cc1ncc(NC(=O)c2ccnc(C(C)C)c2)cc1-c1ccnc(-c2ccnc(NC(=O)C3CC3)c2)c1` [Example 468] the same measures were at most 0.1 µM and 0.5 to 1 µM. Take `CNC(=O)c1cc(-c2cc(-c3cc(NC(=O)c4ccnc(C(C)(C)F)c4)ccc3F)ccn2)ccn1` [Example 479]: the IC50 in the test with H2405 cells fell in the range of 0.1 to 0.5 µM; in the test with Miapaca-2 cells, 1 to 10 µM. The matching figures for `CNC(=O)c1cc(-c2cncc(-c3cc(NC(=O)c4ccnc(C(C)(F)F)c4)ccc3C)c2)ccn1` [Example 440]: 0.1 to 0.5 µM and 1 to 10 µM.

For the compound `CNC(=O)c1cc(-c2cc(-c3cc(NC(=O)c4ccnc(C5CC5)c4)cnc3C)ccn2)ccn1` [Example 462], the IC50 in the test with H2405 cells was in the range of 0.5 to 1 µM. On to `Cc1ccc(NC(=O)c2ccnc(C(C)C)c2)cc1-c1ccnc(-c2ccnc(NC(=O)C3CC3)c2)c1` [Example 467], for which the IC50 in the test with H2405 cells was at most 0.1 µM; in the test with Miapaca-2 cells it was 0.5 to 1 µM. The matching figures for `Cc1cc(-c2cc(NC(=O)c3ccnc(C(C)(C)F)c3)ccc2C)cc(-c2ccnc(C(N)=O)c2)n1` [Example 484]: 0.1 to 0.5 µM and 1 to 10 µM.

Turning to `Cc1ccc(NC(=O)c2ccnc(C(C)(C)C#N)c2)cc1-c1ccnc(-c2ccnc(NC(=O)C3CC3)c2)c1` [Example 456], the IC50 with H2405 cells was at most 0.1 µM. The same measure, in the same setting: in the case of `Cc1ccc(NC(=O)c2ccnc(C(C)(C)F)c2)cc1-c1ccnc(-c2ccnc(C(=O)NC3CN(C)C3)c2)c1` [Example 450] it was 0.1 to 0.5 µM. Turning to `CNC(=O)c1cc(-c2cc(-c3cc(NC(=O)c4ccnc(C(C)C)c4)ccc3C)ccn2)ccn1` [Example 443], the IC50 was at most 0.1 µM in the test on H2405 cells and 0.5 to 1 µM in the test on Miapaca-2 cells. For `CNC(=O)c1cc(-c2cc(-c3cc(NC(=O)c4ccnc(C(C)(C)F)c4)ccc3C)cc(OCCO)n2)ccn1` [Example 449], in the test on H2405 cells, the concentration for half-maximal inhibition (IC50) is at most 0.1 µM.

Turning to `Cc1ccc(NC(=O)c2ccnc(C3CC3)c2)cc1-c1ccnc(-c2ccnc(NC(=O)C3CC3)c2)c1` [Example 458], the IC50 with H2405 cells is at most 0.1 µM. Consider `CNC(=O)c1cc(-c2cc(-c3cc(NC(=O)c4ccnc(C(C)(C)F)c4)cc(F)c3C)ccn2)ccn1` [Example 480], for which the values for the IC50 in the test on H2405 cells and in the test with Miapaca-2 cells were 0.1 to 0.5 µM and 1 to 10 µM, respectively. Take `Cc1ccc(NC(=O)c2ccnc(C(C)(C)F)c2)cc1-c1ccnc(-c2ccnc(C(=O)NCCN(C)C)c2)c1` [Example 453]: the IC50 with H2405 cells was in the range of 0.1 to 0.5 µM. The same measure, in the same setting: the same measure for `Cc1ccc(NC(=O)c2ccnc(C(C)(C)F)c2)cc1-c1ccnc(-c2ccnc(NC(=O)C3CC3)c2)c1` [Example 455]: at most 0.1 µM.
